Our source for the IC50 values is patent publication US6911542B2, “Pyrazino[1′,2′:1,6]pyrido[3,4b]indole derivatives” (Lilly Icos LLC., priority 2000, dated 2005).

The target in this assay is T1, human recombinant PDE5 (Homo sapiens, UniProt O76074).
T1 construct: host or cells: Saccharomyces cerevisiae, protease-deficient strain BJ2-54 (ATCC 74465)
Description: cGMP-PDE one-step inhibition assay, human recombinant PDE5. Format: biochemical. Conditions: 0.15 μM 8-[H3]-cGMP, 30 min incubation. The method, then:
The compounds of structural formula (I) were tested for an ability to inhibit PDE5. The ability of a compound to inhibit PDE5 activity is related to the IC50 value for the compound, i.e., the concentration of inhibitor required for 50% inhibition of enzyme activity. The IC50 value for compounds of structural formula (I) were determined using recombinant human PDE5.
The production of recombinant human PDEs and the IC50 determinations can be accomplished by well-known methods in the art. Exemplary methods are described as follows:
Recombinant production of human PDE1B, PDE2, PDE4A, PDE4B, PDE4C, PDE4D, PDE5, and PDE7 was carried out similarly to that described in Example 7 of U.S. Pat. No. 5,702,936, incorporated herein by reference, except that the yeast transformation vector employed, which is derived from the basic ADH2 plasmid described in Price et al., Methods in Enzymology, 185, pp. 308-318 (1990), incorporated yeast ADH2 promoter and terminator sequences and the Saccharomyces cerevisiae host was the protease-deficient strain BJ2-54 deposited on Aug. 31, 1998 with the American Type Culture Collection, Manassas, Va., under accession number ATCC 74465. Transformed host cells were grown in 2×SC-leu medium, pH 6.2, with trace metals, and vitamins. After 24 hours, YEP medium-containing glycerol was added to a final concentration of 2×YET/3% glycerol. Approximately 24 hr later, cells were harvested, washed, and stored at −70° C. […]
Cell pellets (29 g) were thawed on ice with an equal volume of Lysis Buffer (25 mM Tris HCl, pH 8, 5 mM MgCl2, 0.25 mM DTT, 1 mM benzamidine, and 10 μM ZnSO4). Cells were lysed in a Microfluidizer® (Microfluidics Corp.) using nitrogen at 20,000 psi. The lysate was centrifuged and filtered through 0.45 μm disposable filters. The filtrate was applied to a 150 mL column of Q SEPHAROSE® Fast-Flow (Pharmacia). The column was washed with 1.5 volumes of Buffer A (20 mM Bis-Tris Propane, pH 6.8, 1 mM MgCl2, 0.25 mM DTT, 10 μM ZnSO4) and eluted with a step gradient of 125 mM NaCl in Buffer A followed by a linear gradient of 125-1000 mM NaCl in Buffer A. Active fractions from the linear gradient were applied to a 180 mL hydroxyapatite column in Buffer B (20 mM Bis-Tris Propane (pH 6.8), 1 mM MgCl2, 0.25 mM DTT, 10 μM ZnSO4, and 250 mM KCl). After loading, the column was washed with 2 volumes of Buffer B and eluted with a linear gradient of 0-125 mM potassium phosphate in Buffer B. Active fractions were pooled, precipitated with 60% ammonium sulfate, and resuspended in Buffer C (20 mM Bis-Tris Propane, pH 6.8, 125 mM NaCl, 0.5 mM DTT, and 10 μM ZnSO4). The pool was applied to a 140 mL column of […]® S-300 HR and eluted with Buffer C. Active fractions were diluted to 50% glycerol and stored at −20° C.
cGMP-PDE activity of compounds of the present invention was measured using a one-step assay adapted from Wells et al., Biochim. Biophys. Acta, 384, 430 (1975). The reaction medium contained 50 mM Tris-HCl, pH 7.5, 5 mM magnesium acetate, 250 μg/ml 5′-Nucleotidase, 1 mM EGTA, and 0.15 μM 8-[H^3]-cGMP. Unless otherwise indicated, the enzyme used was a human recombinant PDE5 (ICOS Corp., Bothell, Wash.).
Compounds of the invention were dissolved in DMSO finally present at 2% in the assay.

The term IC50 denotes the concentration that gives 50% inhibition. Regarding `NS(=O)(=O)c1ccc(CCN2CC(=O)N3[C@H](c4ccc5c(c4)OCO5)c4[nH]c5ccccc5c4C[C@@H]3C2=O)cc1` [Example 1, (6R-trans)-6-(1,3-Benzodioxol-5-yl)-2,3,6,7,12,12a-hexahydro-2-[2-(4-phenylsulfamoyl)-ethyl]pyrazino[1′,2′:1,6]pyrido[3,4-b]indole-1,4-dione], the IC50 was found to be 1.4 nM. Under `CON1CC(=O)N2[C@H](c3ccc4c(c3)OCO4)c3[nH]c4ccccc4c3C[C@@H]2C1=O` [Example 3, (6R,12aR)-6-Benzo[1,3]dioxol-5-yl-2-methoxy-2,3,6,7,12,12a-hexahydropyrazino[1′,2′:1,6]-pyrido[3,4-b]indole-1,4-dione] stands 2.5 nM. In the case of `NN1CC(=O)N2[C@H](c3ccc4c(c3)OCO4)c3[nH]c4ccccc4c3C[C@@H]2C1=O` [Example 4, (6R,12aR)-2-Amino-6-benzo[1,3]dioxo-5-yl-2,3,6,7,12,12a-hexahydropyrazino[1′, 2′:1,6]-pyrido[3,4-b]indole-1,4-dione], the half-maximal inhibitory concentration (IC50) was 1.8 nM.

Regarding `CC1C(=O)N2[C@H](c3ccc4c(c3)OCO4)c3[nH]c4ccccc4c3C[C@@H]2C(=O)N1CCN(C)C` (stereo partly drawn) [Example 8], the IC50 was 130 nM. Under `O=C1[C@H]2Cc3c([nH]c4ccccc34)[C@@H](c3ccc4c(c3)OCO4)N2C(=O)CN1CCCN1CCOCC1` [Example 18] stands 40 nM. As to `CCOC(=O)CCN1CC(=O)N2[C@H](c3ccc4c(c3)OCO4)c3[nH]c4ccccc4c3C[C@@H]2C1=O` [Example 24], the IC50 worked out at 9.6 nM.

As for `COCCCN1CC(=O)N2[C@H](c3ccc4c(c3)OCO4)c3[nH]c4ccccc4c3C[C@@H]2C1=O` [Example 25], the half-maximal inhibitory concentration (IC50) is 10 nM.

Take `CC(=O)NCCN1CC(=O)N2[C@H](c3ccc4c(c3)OCO4)c3[nH]c4ccccc4c3C[C@@H]2C1=O` [Example 26]: the IC50 was determined as 10 nM. Under `O=C1CCCN1CCCN1CC(=O)N2[C@H](c3ccc4c(c3)OCO4)c3[nH]c4ccccc4c3C[C@@H]2C1=O` [Example 27] stands 5.4 nM.

As for `O=C(CN1CC(=O)N2[C@H](c3ccc4c(c3)OCO4)c3[nH]c4ccccc4c3C[C@@H]2C1=O)Nc1ccccc1` [Example 28], the half-inhibitory concentration (IC50) worked out at 3.9 nM. Under `COCCN1CC(=O)N2[C@H](c3ccc4c(c3)OCO4)c3[nH]c4ccccc4c3C[C@@H]2C1=O` [Example 29] stands 5.9 nM; under `O=C(CN1CC(=O)N2[C@H](c3ccc4c(c3)OCO4)c3[nH]c4ccccc4c3C[C@@H]2C1=O)NCc1ccccc1` [Example 30], 20 nM; under `O=C(CN1CC(=O)N2[C@H](c3ccc4c(c3)OCO4)c3[nH]c4ccccc4c3C[C@@H]2C1=O)N1CCCCC1` [Example 31], 20 nM.

With `O=C1[C@H]2Cc3c([nH]c4ccccc34)[C@@H](c3ccc4c(c3)OCO4)N2C(=O)CN1CCCn1ccnc1` [Example 32], the IC50 turned out to be 10 nM. Under `O=C(CCN1CC(=O)N2[C@H](c3ccc4c(c3)OCO4)c3[nH]c4ccccc4c3C[C@@H]2C1=O)NC1CCCCC1` [Example 33] stands 10 nM; under `CCCCN(C)C(=O)CCCN1CC(=O)N2[C@H](c3ccc4c(c3)OCO4)c3[nH]c4ccccc4c3C[C@@H]2C1=O` [Example 34], 10 nM; under `O=C(CCCN1CC(=O)N2[C@H](c3ccc4c(c3)OCO4)c3[nH]c4ccccc4c3C[C@@H]2C1=O)NC1CCCCC1` [Example 35], 4.3 nM. Under `O=C(O)CCN1CC(=O)N2[C@H](c3ccc4c(c3)OCO4)c3[nH]c4ccccc4c3C[C@@H]2C1=O` [Example 36] stands 50 nM.

In the case of `O=C(CN1CC(=O)N2[C@H](c3ccc4c(c3)OCO4)c3[nH]c4ccccc4c3C[C@@H]2C1=O)Nc1ccncc1` [Example 38], the IC50 turned out to be 3.9 nM. Regarding `CCOCCCN1CC(=O)N2[C@H](c3ccc4c(c3)OCO4)c3[nH]c4ccccc4c3C[C@@H]2C1=O` [Example 39], the half-maximal inhibitory concentration (IC50) stood at 30 nM. Under `O=C1[C@H]2Cc3c([nH]c4ccccc34)[C@@H](c3ccc4c(c3)OCO4)N2C(=O)CN1CCOCCO` [Example 40] stands 10 nM.
